Assay results published in paper PMC10850954, “HDAC6/aggresome processing pathway importance for inflammasome formation is context-dependent” (The Journal of Biological Chemistry, 2024).

Biological target: T1, HDAC6 (Homo sapiens, UniProt Q9UBN7)
T1 sequence (Q9UBN7 1-1215): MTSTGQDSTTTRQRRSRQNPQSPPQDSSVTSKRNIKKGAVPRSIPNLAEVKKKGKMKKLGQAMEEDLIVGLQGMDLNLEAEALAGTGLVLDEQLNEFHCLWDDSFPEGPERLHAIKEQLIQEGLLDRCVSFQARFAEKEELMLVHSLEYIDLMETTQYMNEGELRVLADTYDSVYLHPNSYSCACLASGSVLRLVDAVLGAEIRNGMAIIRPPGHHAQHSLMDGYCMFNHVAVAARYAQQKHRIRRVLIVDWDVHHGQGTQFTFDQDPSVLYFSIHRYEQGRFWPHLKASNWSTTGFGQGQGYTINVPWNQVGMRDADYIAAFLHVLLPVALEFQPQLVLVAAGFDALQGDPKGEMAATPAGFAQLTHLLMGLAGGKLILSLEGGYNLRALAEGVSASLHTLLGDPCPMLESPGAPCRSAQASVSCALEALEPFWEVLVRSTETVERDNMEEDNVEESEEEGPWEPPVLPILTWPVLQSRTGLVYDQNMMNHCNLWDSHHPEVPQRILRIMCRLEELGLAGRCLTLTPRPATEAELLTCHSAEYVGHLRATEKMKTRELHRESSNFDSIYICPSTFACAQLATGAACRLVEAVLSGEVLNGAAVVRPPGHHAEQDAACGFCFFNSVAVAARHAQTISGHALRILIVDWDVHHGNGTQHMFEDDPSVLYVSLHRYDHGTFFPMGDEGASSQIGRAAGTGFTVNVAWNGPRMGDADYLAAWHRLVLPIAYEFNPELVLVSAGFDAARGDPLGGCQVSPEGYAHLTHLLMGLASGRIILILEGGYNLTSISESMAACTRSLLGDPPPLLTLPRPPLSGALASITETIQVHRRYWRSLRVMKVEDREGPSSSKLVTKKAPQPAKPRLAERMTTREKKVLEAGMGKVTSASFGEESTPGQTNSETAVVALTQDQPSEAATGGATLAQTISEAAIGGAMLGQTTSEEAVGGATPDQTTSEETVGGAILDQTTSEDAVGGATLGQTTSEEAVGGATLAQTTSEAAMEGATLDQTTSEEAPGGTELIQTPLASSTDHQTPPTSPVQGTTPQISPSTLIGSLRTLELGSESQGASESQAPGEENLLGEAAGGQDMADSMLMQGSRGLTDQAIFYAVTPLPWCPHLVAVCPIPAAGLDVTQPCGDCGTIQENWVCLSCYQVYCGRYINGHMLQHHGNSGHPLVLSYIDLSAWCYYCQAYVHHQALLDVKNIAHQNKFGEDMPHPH
Assay: HDAC6 degradation in PBMCs (immunoblot)
Format: cell-based
Set-up: endogenous in cells; host or cells: PBMCs (with or without LPS priming)
Conditions: XY-07-35 at 1 μM
Description: Figure 3 Effect of […] mediated HDAC6 degradation on NLRP3 inflammasome activation in PBMCs.A, schematic of the mode of action of an HDAC6 degrader. The PROTAC engages both HDAC6 and the E3 ligase cereblon (CRBN), which then leads to ubiquitination and degradation of HDAC6. B, chemical structure of the HDAC6 degrader XY-07-35 and of the negative control XY-07-191 which no longer recruits CRBN. C, in vitro enzymatic assay of compound XY-07-35 on the activity of different HDACs. IC50 for each enzyme is shown. D, XY-07-35 mediated HDAC6 degradation in PBMCs. PBMCs (without or with LPS priming for 4 h) were treated with the indicated compounds and HDAC6 levels were detected by immunoblotting with an anti-HDAC6 antibody. Detection of actin was used as a control for loading. CGP, CGP084892 (Caspase-1 inhibitor); AFN700 is an inhibitor of the NF-kB pathway (IKK inhibitor). E, HDAC6 degradation impact on IL-1β release in PBMCs following MSU 200 μg/ml (5 h), nigericin 2 μM (2 h) or ATP 3 mM (0.5 h) treatment. Cells were first primed with 0.2 ng/ml LPS for 4 h at 37 °C, then treated with MSU, nigericin, and ATP as indicated. […]
Treated BMDM cells were lysed with RIPA buffer (supplied with cOmplete Protease Inhibitor Cocktail, Merck#11697498001), and protein concentration was determined by Bradford assay. […]

| Compound | HDAC6 degradation / effect on HDAC6 levels |
| --- | --- |
| CN1C(=O)CCC(N2C(=O)c3cccc(NCCCC(=O)N(C)c4ccc(NC(=O)CCCCCCC(=O)NO)cc4)c3C2=O)C1=O (centres unmarked) [XY-07-191] | only minimal or no effect on HDAC6 levels |
| CN(C(=O)CCCNc1cccc2c1C(=O)N(C1CCC(=O)NC1=O)C2=O)c1ccc(NC(=O)CCCCCCC(=O)NO)cc1 (centres unmarked) [XY-07-35] | efficiently degraded |
